Format in all cases: in vivo
Experiment [1] relates to hallucinogen-induced head-twitching response in mice. Put plainly: DOI-induced head-twitching response in mice after oral administration once a day for 14 days. The settings on record: oral once a day for 14 days, DOI 1 mg/kg i.p. The protocol:
(§1) Four-week-old ICR male mice (17-19 g) were purchased from Japan SLC, Inc. and subjected to the experiment after an acclimatization period of a week. The animals were kept at a room temperature of 23±2° C. at a humidity of 55±10% in a 12-hour cycle of turning on the light at 8:00 and turning off the light at 20:00. The experimental animals were allowed to drink water and eat freely during the period of the experiment.
(§2) In a physiological saline solution, (+/−) 2,5-dimethoxy-4-iodoamphetamine (DOI: sigma Lot 0.012M4812V), which is a hallucinogen, was dissolved. Immediately after intraperitoneally injecting the solution to the mice at 1 mg/kg, the mice were moved to a breeding cage without a floor mat. After five minutes, the numbers of head-twitches of the mice (used as an indicator of a hallucinatory symptom) were counted for five minutes (Egashira et al., Repeated administration of Yokukansan inhibits DOI-induced head-twitch response and decreases expression of 5-hydroxytryptamine (5-HT) 2A receptors in the prefrontal cortex., Prog Neuropsychopharmacol Biol Psychiatry., 32, 1516-1520, 2008). In this regard, to exclude the influence of external noise or the like on the behavior of the mice, the head-twitches were counted in a soundproof chamber.
Similar ICR male mice to those used in Test 1 were randomly divided into eight groups including a normal group, a control group and six test groups. A 0.5% CMC-Na solution was orally administered to the normal group and the control group once a day for 14 days, and the atractylodes rhizome extract at different doses (20, 100 and 500 mg/kg) and the atractylodes lancea rhizome extract at different doses (20, 100 and 500 mg/kg), which were each prepared using a 0.5% CMC-Na solution, were orally administered to the six test groups once a day for 14 days. One hour after the completion of the final oral administration, 1 mg/kg of DOI was intraperitoneally injected to the mice of the control group and the test groups. Then, the head-twitches of the mice were counted in a similar manner as in Test 1. The results of the measurement were tested by the Dunnett's test using one-way analysis of variance for the comparison between multiple groups. Here, when p<0.05, it was determined that the result attained statistical significance.
The anti-hallucination actions of atractylenolide III and β-eudesmol were examined by the same method as that of Test 2 except for the points which are especially specified. In this test, atractylenolide III purified in Example 1 and commercial β-eudesmol (Lot. WEG2032, Wako Pure Chemical Industries, Ltd.) were dissolved in corn oil and used. The doses were set based on the average amounts of the compounds contained in the crude drugs and on the doses used in Test 2. Specifically, the doses of atractylenolide III were set at 0.03, 0.15 and 0.7 mg/kg, and the doses of β-eudesmol were set at 0.4, 2.0 and 10 mg/kg.
The anti-hallucination actions of atractylone and atractylenolide II were examined by the same method as that of Test 2 except for the points which are especially specified. In this test, atractylone and atractylenolide II purified in Example 1 were dissolved in corn oil and used. The doses of atractylone were set at 0.36, 1.8 and 9.0 mg/kg, and the doses of atractylenolide II were set at 0.03, 0.15 and 0.75 mg/kg.
The anti-hallucination action of atractylenolide I was examined by the same method as that of Test 2 except for the points which are especially specified. In this test, atractylenolide I purified in Example 1 was dissolved in corn oil and used. The doses of atractylenolide I were set at 0.03, 0.15 and 0.75 mg/kg.

The next experiment has as its system head-twitches of mice. As to the kind of experiment: Production of hallucination model mouse with DOI. The settings on record: 1 mg/kg intraperitoneally, counted for five minutes after five minutes. The protocol: as §1, §2
Experiment [2] relates to hallucinogen-induced head-twitching response in mice. As to the kind of experiment: DOI-induced head-twitching response in mice after single application (one oral administration). The note with it: single oral application, 0.03, 0.15 and 0.75 mg/kg, DOI i.p. after one hour, FIG. 7. The protocol: as §2
Similar ICR male mice to those used in Test 1 were randomly divided into eight groups including a normal group, a control group and six test groups. A 0.5% CMC-Na solution was […], and the atractylodes rhizome extract at different doses ([…]) and the atractylodes lancea rhizome extract at different doses ([…]), which were each prepared using a 0.5% CMC-Na solution, […] […] Then, the head-twitches of the mice were counted in a similar manner as in Test 1. […] Here, when p<0.05, it was determined that the result attained statistical significance. […]

For `C=C1CCC[C@]2(C)CC[C@@H](C(C)(C)O)C[C@@H]12` [β-eudesmol], the “number of head-twitches as compared to the control group” value (“number … compared to the control group” below) in experiment [1] (10 mg/kg in corn oil) was “decreased significantly”.
On to `C=C1CCC[C@]2(C)C=C3OC(=O)C(C)=C3C[C@@H]12` [atractylenolide I], for which the “number … compared to the control group” value in experiment [1] (0.15 mg/kg in corn oil) and in experiment [1] (0.75 mg/kg in corn oil) was “decreased significantly” in each case.
Regarding atractylenolide II, the “number … compared to the control group” value in experiment [1] (0.75 mg/kg in corn oil) was “decreased significantly”.
For the compound `COc1cc(CC(C)N)c(OC)cc1I` (racemic) [DOI, (+/−) 2,5-dimethoxy-4-iodoamphetamine], in the experiment on head-twitches of mice, the “numbers of head-twitches compared with normal mice” value is listed as “higher”.
On to `C=C1CCC[C@]2(C)C[C@]3(O)OC(=O)C(C)=C3C[C@@H]12` [atractylenolide III], for which the “number … compared to the control group” value in experiment [1] (0.15 mg/kg in corn oil) and in experiment [1] (0.7 mg/kg in corn oil) was “decreased significantly” each time. The “number of head-twitches versus the control group” value in experiment [2] is reported as “no significant difference”.
Take `C=C1CCC[C@]2(C)Cc3occ(C)c3C[C@@H]12` [atractylone]: in experiment [1] (9.0 mg/kg in corn oil), the “number … compared to the control group” value is reported as “decreased significantly”.

(Values after patent publication US20170189465A1, “Anti Hallucination Drug” (Kracie Pharma, Ltd., priority 2014, published 2017).)
